Paper PMC7156458, “Synthetic biology based construction of biological activity-related library of fungal decalin-containing diterpenoid pyrones” (Nature Communications, 2020)
Where two headings read alike, the source gives them in different places.

Assays:
LOX-IMVI = test: cells; parameters: species or system JFCR39 human cancer cell lines; JFCR39 panel growth inhibition, sulforhodamine B total protein after 48 h; details: Homo sapiens, LOX IMVI, 48 h
Experimental: (§1) Supplementary Note 24. Antiproliferative effects across the panel of JFCR39 cancer cell lines A panel of 39 human cancer cell lines, termed JFCR39, were previously described13-16. Cells were grown in RPMI-1640 (FUJIFILM Wako Pure Chemical Corporation, Tokyo, Japan) supplemented with 1 µg mL-1 kanamycin and 5% (v/v) fetal bovine serum (Nichirei Biosciences Inc, Tokyo, Japan) and incubated at 37°C in a humidified atmosphere supplemented with 5% CO2. Drug efficacy was assessed as changes in total cellular protein after 48 hours of drug treatment using a sulforhodamine B assay. Assays were done in duplicate and the GI50 was calculated as described previously13,16. The antitumor profile across the JFCR39 panel, or fingerprints were then compared to reference database containing ~2000 compounds by COMPARE algorithm16,17. Initially, we evaluated new DDP analogues for their antiproliferative activities across the panel of 39 human cancer cell lines, JFCR39[50],[51].

MKN-B = test: cells; parameters: species or system JFCR39 human cancer cell lines; JFCR39 panel growth inhibition, sulforhodamine B total protein after 48 h; details: 48 h
Experimental: as §1

NCI-H226 = test: cells; parameters: species or system JFCR39 human cancer cell lines; JFCR39 panel growth inhibition, sulforhodamine B total protein after 48 h; details: Homo sapiens, NCI-H226, 48 h
Experimental: as §1

NCI-H460 = test: cells; parameters: species or system JFCR39 human cancer cell lines; JFCR39 panel growth inhibition, sulforhodamine B total protein after 48 h; details: Homo sapiens, NCI-H460, 48 h
Experimental: as §1

KM-12 = test: cells; parameters: species or system JFCR39 human cancer cell lines; JFCR39 panel growth inhibition, sulforhodamine B total protein after 48 h; details: Homo sapiens, KM12, 48 h
Experimental: as §1

A549 = test: cells; parameters: species or system JFCR39 human cancer cell lines; JFCR39 panel growth inhibition, sulforhodamine B total protein after 48 h; details: Homo sapiens, A549, 48 h
Experimental: as §1

BSY-1 = test: cells; parameters: species or system JFCR39 human cancer cell lines; JFCR39 panel growth inhibition, sulforhodamine B total protein after 48 h; details: BSY-1, 48 h
Experimental: as §1

ACHN = test: cells; parameters: species or system JFCR39 human cancer cell lines; JFCR39 panel growth inhibition, sulforhodamine B total protein after 48 h; details: Homo sapiens, ACHN, 48 h
Experimental: as §1

[1] = system: human immunodeficiency virus-1 (HIV-1); test: anti-HIV MAGI assay; assay type: cell-based; details: Human immunodeficiency virus 1, MAGI, anti-HIV
Source text: We examined the inhibitory activities of DDPs against various species of bacteria (both gram-negative and gram-positive bacteria), fungi and viruses. […] In contrast, preliminary screening of the DDPs for anti-viral agents with hepatitis B virus (HBV), measles virus (MV), Epstein-Barr virus (EBV), herpes simplex virus (HSV) and human immunodeficiency virus-1 (HIV-1) indicated their selective inhibition of HIV.

[2] = cytotoxicity in Drosophila l(2)mbn cells; assay type: cell-based; details: Drosophila, l(2)mbn cells (larval blood cell-derived)
Experimental: (§2) We screened the DDPs on the Drosophila assay system for cytotoxicity, inhibitory activity of innate immune signalling and insecticidal activity. The cytotoxicity of the DDPs was evaluated using two cell lines, embryonic macrophage-derived DL1 cells[58]–[60] and larval blood cell-derived l(2)mbn cells, and their IC50 values are listed in Supplementary Table 23.

l(2)mbn cells = test: cytotoxicity in Drosophila l(2)mbn cells; assay type: cell-based; details: for Luminescence Raw1: replicate 1; for Luminescence Raw2: replicate 2; for IC50: Drosophila melanogaster, cytotoxicity
Experimental: as §2

DL1 cells = test: cytotoxicity in Drosophila DL1 cells; assay type: cell-based; details: DL1 cells; for IC50: Drosophila melanogaster, cytotoxicity
Experimental: as §2

[3] = cytotoxicity in Drosophila DL1 cells; assay type: cell-based; details: Drosophila, DL1 cells (embryonic macrophage-derived), DL1 cells
Experimental: as §2

[4] = replicate 1, relative to DMSO 1%, read-out: % viability, viability 1
[5] = replicate 2, relative to DMSO 1%, read-out: % viability, viability 2
[6] = average of two replicates, read-out: IC50 Average
[7] = replicate 1, read-out: IC50 (1)
[8] = replicate 2, read-out: IC50 (2)

Structure (SMILES): C=C1CC[C@H]2[C@]3(C)C[C@@H](C=C(C)C)O[C@H]3CC[C@]2(C)[C@@H]1Cc1c(OC)oc(CO)c(C)c1=O [Compound 17]
- GI50 (LOX-IMVI): 10400 nM
- GI50 (MKN-B): 10000 nM
- GI50 (NCI-H226): 14000 nM
- GI50 (NCI-H460): 91.6 nM
- GI50 (KM-12): 14500 nM
- GI50 (A549): 12300 nM
- GI50 (BSY-1): 12800 nM
- GI50 (ACHN): 10800 nM
- EC50 ([1]; MAGI assay, read-out: EC50): < 200 nM
- EC50 ([1]; average of numeric determinations, read-out: Avg. EC50): 1360 nM
- viability at 0.04 µM [2, 4]: 35.7%
- viability at 0.04 µM [2, 5]: 83.5%
- viability at 0.2 µM [2, 4]: 61.4%
- viability at 0.2 µM [2, 5]: 95.4%
- viability at 1 µM [2, 4]: 76.8%
- viability at 1 µM [2, 5]: 97%
- viability at 4 µM [2, 4]: 31.4%
- viability at 4 µM [2, 5]: 22.2%
- viability at 10 µM [2, 4]: 1.94%
- viability at 10 µM [2, 5]: 1.93%
- viability at 20 µM [2, 4]: 1.88%
- viability at 20 µM [2, 5]: 3.89%
- Luminescence Raw1 (l(2)mbn cells; 0.04 µM): 2242516
- Luminescence Raw2 (l(2)mbn cells; 0.04 µM): 5241058
- Luminescence Raw1 (l(2)mbn cells; 0.2 µM): 3856705
- Luminescence Raw2 (l(2)mbn cells; 0.2 µM): 5991979
- Luminescence Raw1 (l(2)mbn cells; 1 µM): 4822512
- Luminescence Raw2 (l(2)mbn cells; 1 µM): 6091579
- Luminescence Raw1 (l(2)mbn cells; 4 µM): 1969854
- Luminescence Raw2 (l(2)mbn cells; 4 µM): 1392467
- Luminescence Raw1 (l(2)mbn cells; 10 µM): 122097
- Luminescence Raw2 (l(2)mbn cells; 10 µM): 121376
- Luminescence Raw1 (l(2)mbn cells; 20 µM): 118130
- Luminescence Raw2 (l(2)mbn cells; 20 µM): 243967
- IC50 (l(2)mbn cells; [6]): 1780 nM
- IC50 (l(2)mbn cells; average±SEM, read-out: IC50): 1780 ± 430 nM
- IC50 (l(2)mbn cells; [7]): 1350 nM
- IC50 (l(2)mbn cells; [8]): 2220 nM
- Luminescence Raw1 (DL1 cells; 0.04 µM, replicate 1): 2678864
- Luminescence Raw2 (DL1 cells; 0.04 µM, replicate 2): 2844064
- Luminescence Raw1 (DL1 cells; 0.2 µM, replicate 1): 2387791
- Luminescence Raw2 (DL1 cells; 0.2 µM, replicate 2): 2484453
- Luminescence Raw1 (DL1 cells; 1 µM, replicate 1): 1292136
- Luminescence Raw2 (DL1 cells; 1 µM, replicate 2): 490161
- Luminescence Raw1 (DL1 cells; 4 µM, replicate 1): 264802
- Luminescence Raw2 (DL1 cells; 4 µM, replicate 2): 275258
- Luminescence Raw1 (DL1 cells; 10 µM, replicate 1): 251461
- Luminescence Raw2 (DL1 cells; 10 µM, replicate 2): 258312
- Luminescence Raw1 (DL1 cells; 20 µM, replicate 1): 208914
- Luminescence Raw2 (DL1 cells; 20 µM, replicate 2): 269129
- IC50 (DL1 cells; [6]): 2780 nM
- IC50 (DL1 cells; average±SEM, read-out: IC50): 2780 ± 680 nM
- IC50 (DL1 cells; [7]): 3460 nM
- IC50 (DL1 cells; [8]): 2100 nM
- viability at 0.04 µM [3, 4]: 195%
- viability at 0.04 µM [3, 5]: 207%
- viability at 0.2 µM [3, 4]: 174%
- viability at 0.2 µM [3, 5]: 181%
- viability at 1 µM [3, 4]: 94.2%
- viability at 1 µM [3, 5]: 35.7%
- viability at 4 µM [3, 4]: 19.3%
- viability at 4 µM [3, 5]: 20.1%
- viability at 10 µM [3, 4]: 18.3%
- viability at 10 µM [3, 5]: 18.8%
- viability at 20 µM [3, 4]: 15.2%
- viability at 20 µM [3, 5]: 19.6%
